Results as given in ChEMBL document CHEMBL1132189, “Three-dimensional quantitative structure-activity relationship analyses using comparative molecular field analysis and comparative molecular similarity indices analysis to elucidate selectivity differences of inhibitors binding to trypsin, thrombin, and factor Xa” (J Med Chem, 1999).
pKi: −log10 of the molar value.

Columns and labels:
[1] = biological target: T1, Serine protease 1 (Bos taurus, UniProt P00760); assay: Binding affinity towards trypsin
T1 sequence (P00760 whole entry): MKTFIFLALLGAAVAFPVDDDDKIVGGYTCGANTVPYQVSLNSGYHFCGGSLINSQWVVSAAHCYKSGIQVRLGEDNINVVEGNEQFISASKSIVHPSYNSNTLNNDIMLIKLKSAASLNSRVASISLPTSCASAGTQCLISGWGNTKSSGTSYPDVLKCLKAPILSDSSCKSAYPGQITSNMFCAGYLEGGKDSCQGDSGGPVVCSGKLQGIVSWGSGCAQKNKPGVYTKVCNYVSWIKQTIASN

[2] = biological target: Coagulation factor X (Homo sapiens, UniProt P00742); assay: Binding affinity towards Coagulation factor Xa
[3] = biological target: Prothrombin (Bos taurus, UniProt P00735); assay: Binding affinity towards thrombin

Chain of Coagulation factor X (P00742 41-179 limits assumed): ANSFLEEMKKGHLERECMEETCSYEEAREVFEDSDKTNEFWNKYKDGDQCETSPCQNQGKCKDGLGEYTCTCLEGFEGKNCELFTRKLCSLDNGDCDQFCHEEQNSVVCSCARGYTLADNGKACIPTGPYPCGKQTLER
Chain of Coagulation factor X (P00742 235-488 limits assumed): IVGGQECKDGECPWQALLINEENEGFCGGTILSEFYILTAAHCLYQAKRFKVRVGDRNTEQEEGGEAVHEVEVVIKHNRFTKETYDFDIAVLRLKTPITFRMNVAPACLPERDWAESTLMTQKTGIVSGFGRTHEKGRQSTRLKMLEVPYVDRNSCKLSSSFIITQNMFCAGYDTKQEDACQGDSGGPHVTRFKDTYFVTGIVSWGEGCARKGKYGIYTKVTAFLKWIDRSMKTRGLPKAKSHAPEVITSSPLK

Row | pKi [1] | pKi [2] | pKi [3] | Compound
1 | 5.92 | 4.89 | 6.50 | N=C(N)c1cccc(C[C@H](NS(=O)(=O)c2ccc3ccccc3c2)C(=O)N2CC[C@@H]3CCCC[C@H]32)c1
2 | 6.80 | 4.12 | 6.80 | CNC(=O)C1CCN(C(=O)[C@H](Cc2cccc(C(=N)N)c2)NS(=O)(=O)c2ccc3ccccc3c2)CC1
3 | 3.85 | 3.72 | 4.77 | CNC(=O)[C@H](Cc1cccc(C(=N)N)c1)NS(=O)(=O)c1c(C)cc(OC)c(C)c1C
4 | 5.10 | 4.24 | 5.64 | CNC(=O)[C@H]1CCCCN1C(=O)[C@H](Cc1cccc(C(=N)N)c1)NS(=O)(=O)c1ccc2ccccc2c1
5 | – | 3.75 | 6.47 | CC1CCN(C(=O)[C@H](Cc2cccc(C(=N)N)c2)NS(=O)(=O)c2cccc3cccnc23)CC1
6 | 6.21 | 4.77 | 6.64 | N=C(N)c1cccc(C[C@H](NS(=O)(=O)c2cccc3ccccc23)C(=O)N2CCCCC2)c1
7 | 5.96 | 4.46 | 7.24 | N=C(N)c1cccc(C[C@H](NS(=O)(=O)c2ccc3ccccc3c2)C(=O)N2CCN(C(=O)CO)CC2)c1
8 | 6.70 | 4.92 | 8.30 | CC1CCN(C(=O)[C@H](Cc2cccc(C(=N)N)c2)NS(=O)(=O)c2ccc(C(C)(C)C)cc2)CC1
9 | 5.85 | 5.46 | 6.96 | CC(C)OC(=O)[C@H](Cc1cccc(C(=N)N)c1)NS(=O)(=O)c1ccc2ccccc2c1
10 | 5.82 | 5.64 | 6.92 | N=C(N)c1cccc(C[C@H](NS(=O)(=O)c2ccc3ccccc3c2)C(=O)N2CCCc3ccccc32)c1
11 | 6.58 | 4.75 | 7.43 | N=C(N)c1cccc(C[C@H](NS(=O)(=O)c2ccc3ccccc3c2)C(=O)N2CCc3ccccc3C2)c1
12 | 5.66 | 4.12 | 6.46 | Cc1ccc(S(=O)(=O)N[C@@H](Cc2cccc(C(=N)N)c2)C(=O)N2CCCC2)cc1
13 | 4.54 | 3.64 | – | CC1CCN(C(=O)[C@@H](N)Cc2cccc(C(=N)N)c2)CC1
14 | 5.40 | 4.02 | 7.23 | Cc1cc(C)c(S(=O)(=O)N[C@@H](Cc2cccc(C(=N)N)c2)C(=O)N2CCC(C)CC2)c(C)c1
15 | 3.00 | 3.19 | – | CNC(=O)[C@H](Cc1cccc(C(=N)N)c1)NS(=O)(=O)c1c(C)cc(C)cc1C
16 | 4.85 | 4.19 | 5.92 | CC1CCN(C(=O)[C@H](Cc2cccc(C(=N)N)c2)NC(=O)OC(C)(C)C)CC1
17 | 6.00 | 4.66 | 4.82 | N=C(N)c1cccc(C[C@H](NS(=O)(=O)c2ccc3ccccc3c2)C(=O)N2CCC(N3CCCCC3)CC2)c1

Continued, compound first:

Row | Compound | pKi [1] | pKi [2] | pKi [3]
18 | CC(=O)N1CCN(C(=O)[C@H](Cc2cccc(C(=N)N)c2)NS(=O)(=O)c2ccc3ccccc3c2)CC1 | 6.85 | 4.32 | –
19 | N=C(N)c1cccc(C[C@H](NS(=O)(=O)c2ccc3ccccc3c2)C(=O)N2CCC(C(=O)O)CC2)c1 | 6.24 | 4.36 | 6.24
20 | N=C(N)c1cccc(C[C@H](NS(=O)(=O)c2ccc3ccccc3c2)C(=O)N2CCCC[C@@H]2C(=O)O)c1 | 6.20 | 4.42 | 6.58
21 | CC(C)c1cc(C(C)C)c(S(=O)(=O)N[C@@H](Cc2cccc(C(=N)N)c2)C(=O)N2CCC[C@H](C(=O)O)C2)c(C(C)C)c1 | 5.62 | 4.89 | –
22 | N=C(N)c1cccc(C[C@H](NS(=O)(=O)c2ccc3ccccc3c2)C(=O)C(=O)O)c1 | 3.93 | 3.89 | 4.52
23 | N=C(N)c1cccc(C[C@H](NS(=O)(=O)c2ccc3ccccc3c2)C(=O)N2CCC[C@H]2C(=O)O)c1 | 4.80 | 3.89 | –
24 | N=C(N)c1cccc(C[C@H](NS(=O)(=O)c2ccc3ccccc3c2)C(=O)N2CC(C(=O)O)=Cc3ccccc32)c1 | 4.51 | 4.39 | –
25 | Cc1c(C)c(S(=O)(=O)N[C@@H](Cc2cccc(C(=N)N)c2)C(=O)N2CCC(C)CC2)c(C)c2c1OC(C)(C)CC2 | 6.14 | 4.10 | 7.47
26 | COC(=O)[C@H](Cc1cccc(C(=N)N)c1)NS(=O)(=O)c1ccc2ccccc2c1 | 5.60 | 5.60 | 6.55
27 | COc1cc(C)c(S(=O)(=O)N[C@@H](Cc2cccc(C(=N)N)c2)C(=O)N2CCC(C)CC2)c(C)c1C | 6.11 | 4.00 | 7.05
28 | COC(=O)N1CCN(C(=O)[C@H](Cc2cccc(C(=N)N)c2)NS(=O)(=O)c2ccc3ccccc3c2)CC1 | 7.70 | 4.11 | 7.72
29 | N=C(N)c1cccc(C[C@H](NS(=O)(=O)c2ccc3ccccc3c2)C(=O)N2CCC(C=O)CC2)c1 | 6.66 | 4.72 | 7.43
30 | COC(=O)[C@@H]1CCCN1C(=O)[C@H](Cc1cccc(C(=N)N)c1)NS(=O)(=O)c1ccc2ccccc2c1 | 5.09 | 3.96 | 6.18
31 | N=C(N)c1cccc(C[C@H](NS(=O)(=O)c2ccc3ccccc3c2)C(=O)N2CCCC2)c1 | 6.36 | 4.30 | 7.28
32 | CC(C)c1cc(C(C)C)c(S(=O)(=O)N[C@@H](Cc2cccc(C(=N)N)c2)C(=O)N2CCC[C@H](C(=O)NCc3ccccc3)C2)c(C(C)C)c1 | 6.34 | 5.60 | 5.75
33 | CNC(=O)[C@H](Cc1cccc(C(=N)N)c1)NS(=O)(=O)c1c(C)c(C)c2c(c1C)CCC(C)(C)O2 | 4.50 | 5.00 | –
34 | N=C(N)c1cccc(C[C@H](NS(=O)(=O)c2ccc3ccccc3c2)C(=O)N2CCCCC2)c1 | – | 4.42 | 7.19
35 | COC(=O)[C@H]1CCCN(C(=O)[C@H](Cc2cccc(C(=N)N)c2)NS(=O)(=O)c2ccc3ccccc3c2)C1 | 6.41 | 4.75 | 6.82
36 | N=C(N)c1cccc(C[C@H](NS(=O)(=O)c2ccc3ccccc3c2)C(=O)N2CCCCCC2)c1 | 6.26 | 4.58 | 7.68
37 | CC1CCN(C(=O)[C@H](Cc2cccc(C(=N)N)c2)NS(=O)(=O)c2c(C(C)C)cc(C(C)C)cc2C(C)C)CC1 | 6.16 | 5.70 | 7.13

Row | Compound | pKi [1] | pKi [2] | pKi [3]
38 | COC(=O)[C@H]1Cc2ccccc2CN1C(=O)[C@H](Cc1cccc(C(=N)N)c1)NS(=O)(=O)c1ccc2ccccc2c1 | 5.92 | 4.57 | 6.70
39 | Cc1ccc(S(=O)(=O)N[C@@H](Cc2cccc(C(=N)N)c2)C(=O)N2CCCCC2)cc1 | – | 4.82 | 6.47
40 | CN(C)C(=O)N1CCN(C(=O)[C@H](Cc2cccc(C(=N)N)c2)NS(=O)(=O)c2ccc3ccccc3c2)CC1 | 6.77 | 4.62 | 8.06
41 | CS(=O)(=O)N1CCN(C(=O)[C@H](Cc2cccc(C(=N)N)c2)NS(=O)(=O)c2ccc3ccccc3c2)CC1 | 6.72 | 4.66 | –
42 | COC(=O)C1CCN(C(=O)[C@H](Cc2cccc(C(=N)N)c2)NS(=O)(=O)c2c(C(C)C)cc(C(C)C)cc2C(C)C)CC1 | 6.57 | 5.58 | 6.82
43 | CCCCOC(=O)[C@H](Cc1cccc(C(=N)N)c1)NS(=O)(=O)c1ccc2ccccc2c1 | 6.58 | 5.51 | 7.89
44 | N=C(N)c1cccc(C[C@H](NS(=O)(=O)c2ccc3ccccc3c2)C(=O)N2CCC[C@H]2C(=O)OCc2ccccc2)c1 | 6.00 | 4.70 | 6.20
45 | CS(=O)(=O)N1CCN(C(=O)[C@H](Cc2cccc(C(=N)N)c2)NS(=O)(=O)c2cccc3ccccc23)CC1 | – | 5.01 | 7.58
46 | CC(C)OC(=O)[C@H]1CCCN(C(=O)[C@H](Cc2cccc(C(=N)N)c2)NS(=O)(=O)c2ccc3ccccc3c2)C1 | 6.37 | 4.80 | 6.29
47 | N=C(N)c1cccc(C[C@H](NS(=O)(=O)c2ccc3ccccc3c2)C(=O)N2CCN(c3ccccc3)CC2)c1 | 7.57 | 4.57 | 6.28
48 | N=C(N)c1cccc(C[C@H](NS(=O)(=O)c2ccc3ccccc3c2)C(=O)N2CCC[C@H](C(=O)NCc3ccccc3)C2)c1 | 6.92 | 4.77 | 6.55
49 | N=C(N)c1cccc(C[C@H](NS(=O)(=O)c2ccc3ccccc3c2)C(=O)N2CCC(C(=O)NCc3ccccc3)CC2)c1 | 6.57 | 4.46 | 5.51
50 | CC(C)(C)c1ccc(S(=O)(=O)N[C@@H](Cc2cccc(C(=N)N)c2)C(=O)N2CCN(S(C)(=O)=O)CC2)cc1 | 6.80 | – | 8.37
51 | CC(C)c1cc(C(C)C)c(S(=O)(=O)N[C@@H](Cc2cccc(C(=N)N)c2)C(=O)N2CCC[C@H](C(=O)OCc3ccccc3)C2)c(C(C)C)c1 | 6.07 | 6.05 | 6.05
52 | CC1CCN(C(=O)[C@H](Cc2cccc(C(=N)N)c2)NS(=O)(=O)c2ccc3ccccc3c2)CC1 | – | 4.39 | –
53 | CS(=O)(=O)N1CCN(C(=O)[C@@H](N)Cc2cccc(C(=N)N)c2)CC1 | 4.54 | 3.00 | 4.89
54 | CC(C)NC(=O)[C@H](Cc1cccc(C(=N)N)c1)NS(=O)(=O)c1ccc2ccccc2c1 | 4.80 | 3.44 | 5.21
55 | COC(=O)[C@H]1CCCCN1C(=O)[C@H](Cc1cccc(C(=N)N)c1)NS(=O)(=O)c1ccc2ccccc2c1 | 5.72 | 4.34 | 7.16
56 | CC1CCN(C(=O)[C@H](Cc2cccc(C(=N)N)c2)NS(=O)(=O)c2ccc3c(c2)C(=O)c2ccccc2C3=O)CC1 | 7.13 | 5.64 | 7.58
57 | CNC(=O)[C@H](Cc1cccc(C(=N)N)c1)NS(=O)(=O)c1ccc2ccccc2c1 | 4.60 | 4.58 | 5.24
